Data: PMC8377175, “Antidiabetic effect of bio-enhanced preparation of turmeric in streptozotocin-nicotinamide induced type 2 diabetic Wistar rats” (Journal of Ayurveda and Integrative Medicine, 2021)
Marks after values point to notes of the source that are not given here.

Assays:
[1] = system: streptozotocin-nicotinamide induced type 2 diabetic Wistar rats; assay: Fasting serum insulin (DRG Rat insulin ELISA Kit) in STZ-NA diabetic rats; assay type: in vivo; conditions: 30 days, mean ± SD
Protocol: Wistar rats were divided into seven groups, each group had six rats. Treatment for all the groups was started on the 4th day after diabetes induction procedure. The same was considered as Day 1 for treatment and continued for 30 days. The animals were treated for 30 days. The treatment schedule of various groups were as follows: Normal control (NC) (1 mL of 1% Tween 80, per oral), Diabetic control (DC) (1 mL of 1% Tween 80, per oral), two Standard control groups were treated with GLIB (5 mg/kg, per oral) and MET (500 mg/kg, per oral), two test groups were treated with bio-BTE (30 mg/kg, per oral and 60 mg/kg, per oral) and one test group was treated with RTE (30 mg/kg, per oral). The vehicle used for the study in all the groups were 1% Tween 80. Oral feeding of drugs was done using steel oral gavage tube (16 G, 7.6 cm). […]
FBG was estimated in all rats before administration of STZ and NA and had FBG level less than 126 mg/dl. […] FBG values were measured at 0 min (before glucose administration) and OGTT readings (OG1 and OG2) were measured at 60 and 120 min after administration of glucose solution. […] On Day 30 of treatment, FBG was measured and after anaesthetizing rats with ether, blood was collected from overnight fasted rats using cardiac puncture into red-coloured procoagulant vacutainers and centrifuged at 3000 rpm for 7 min to obtain serum. […]

[2] = system: streptozotocin-nicotinamide induced type 2 diabetic Wistar rats; assay: Fasting blood glucose and oral glucose tolerance test in STZ-NA diabetic rats; assay type: in vivo; conditions: mean ± SD; for OG1 (OGTT 60 min), Day 29 Readings (after treatment) / OG2 (OGTT 120 min), Day 29 Readings (after treatment) / OG1 (OGTT 60 min), Day 1 Readings (baseline) / OG2 (OGTT 120 min), Day 1 Readings (baseline): glucose 2 g/kg; for OG1 (OGTT 60 min), Day 29 Readings (after treatment) / OG2 (OGTT 120 min), Day 29 Readings (after treatment) / FBG, Day 29 Readings (after treatment) / FBG, Day 1 Readings (baseline) / OG1 (OGTT 60 min), Day 1 Readings (baseline) / OG2 (OGTT 120 min), Day 1 Readings (baseline): n = 6; for FBG, Day 1 Readings (baseline): Day 1 baseline (4th day after induction); for OG1 (OGTT 60 min), Day 1 Readings (baseline) / OG2 (OGTT 120 min), Day 1 Readings (baseline): Day 1 baseline; for Day 30 FBG: 30 days
Protocol: This study was done at the Department of Pharmacology, Kasturba Medical College, […] Academy of Higher Education, […]. The diabetic model that we have used in this study was STZ-NA model. DM was induced in male Wistar rats by giving NA and STZ injections, intraperitoneally. […] Citrate buffer (0.1 M), which has been used as solvent for mixing STZ, was made by dissolving solution of trisodium citrate (294.10 mg in 100 mL of distilled water) with citric acid solution (210.10 mg in 100 mL of distilled water) to attain pH 4.5. Ice was kept around the glass beaker containing Citrate buffer to maintain citrate buffer at lower temperatures. Normal control rats were administered with Citrate buffer alone intraperitoneally. […] Wistar rats were divided into seven groups, each group had six rats. Treatment for all the groups was started on the 4th day after diabetes induction procedure. The same was considered as Day 1 for treatment and continued for 30 days. The animals were treated for 30 days. The treatment schedule of various groups were as follows: Normal control (NC) (1 mL of 1% Tween 80, per oral), Diabetic control (DC) (1 mL of 1% Tween 80, per oral), two Standard control groups were treated with GLIB (5 mg/kg, per oral) and MET (500 mg/kg, per oral), two test groups were treated with bio-BTE (30 mg/kg, per oral and 60 mg/kg, per oral) and one test group was treated with RTE (30 mg/kg, per oral). The vehicle used for the study in all the groups were 1% Tween 80. Oral feeding of drugs was done using steel oral gavage tube (16 G, 7.6 cm). During the treatment period, rats also received standard pelleted chow (VRK Nutritional solutions) and water ad libitum during treatment. […] FBG, OG1 and OG2 values were estimated from blood drops that were obtained from rat tail tip using Accu-Check Glucometer. […] These serum samples were stored at -80 °C before insulin levels were assayed using DRG Rat insulin ELISA Kit.

[3] = system: streptozotocin-nicotinamide induced type 2 diabetic Wistar rats; assay: HOMA2 calculator: insulin resistance, insulin sensitivity, beta-cell function, and their correlation with serum insulin; assay type: in vivo; conditions: 30 days, mean ± SD
Protocol: FBG, OG1 and OG2 values were estimated from blood drops that were obtained from rat tail tip using Accu-Check Glucometer. […] These serum samples were stored at −80 °C before insulin levels were assayed using DRG Rat insulin ELISA Kit. […] One-way ANOVA followed by post hoc analysis with Tukey test was conducted to evaluate statistically significant differences in the study variables between treatment groups. Pearson two-tailed correlation analysis was used to evaluate the correlation between serum insulin and IR; serum insulin and %B; and serum insulin & %S. SPSS version 21.0 was used to conduct statistical analysis in this study.

Body weight measurement = assay type: in vivo, Wistar rats; conditions: for Body weight, Day 1: Day 1 of treatment (baseline), in g (unit assumed); for Body weight, Day 1 / Body weight, Day 30: mean ± SD; for Percentage change in body weight on Day 30 when compared to baseline, Gain (+)/Loss (−) / Body weight, Day 30: 30 days
Protocol: Wistar rats were divided into seven groups, each group had six rats. Treatment for all the groups was started on the 4th day after diabetes induction procedure. The same was considered as Day 1 for treatment and continued for 30 days. The animals were treated for 30 days. The treatment schedule of various groups were as follows: Normal control (NC) (1 mL of 1% Tween 80, per oral), Diabetic control (DC) (1 mL of 1% Tween 80, per oral), two Standard control groups were treated with GLIB (5 mg/kg, per oral) and MET (500 mg/kg, per oral), two test groups were treated with bio-BTE (30 mg/kg, per oral and 60 mg/kg, per oral) and one test group was treated with RTE (30 mg/kg, per oral). The vehicle used for the study in all the groups were 1% Tween 80. Oral feeding of drugs was done using steel oral gavage tube (16 G, 7.6 cm). During the treatment period, rats also received standard pelleted chow (VRK Nutritional solutions) and water ad libitum during treatment.
Body weight of the rats was measured before induction (on the day of induction), on Day 1 of treatment and also on Day 30 of treatment. Percentage change in body weight was calculated using the formula (BodyweightonDay30oftreatment−BodyweightonDay1oftreatment)/(BodyweightonDay1oftreatment)×100

COc1ccc(Cl)cc1C(=O)NCCc1ccc(S(=O)(=O)NC(=O)NC2CCCCC2)cc1 [GLIB, Glibenclamide]
Day 30 Serum Insulin ([1]; GLIB 5 mg/kg per oral): 145.68 ± 41.06^abd pmol/L
OG1 (OGTT 60 min), Day 29 Readings (after treatment) ([2]; GLIB 5 mg/kg per oral daily): 154.17 ± 76.55^b mg/dL
OG2 (OGTT 120 min), Day 29 Readings (after treatment) ([2]; GLIB 5 mg/kg per oral daily): 117.50 ± 16.21^b mg/dL
FBG, Day 29 Readings (after treatment) ([2]; GLIB 5 mg/kg per oral daily): 95.17 ± 27.97^b mg/dL
FBG, Day 1 Readings (baseline) ([2]; GLIB 5 mg/kg per oral group): 130.5 ± 5.43^a mg/dL
OG1 (OGTT 60 min), Day 1 Readings (baseline) ([2]; GLIB 5 mg/kg per oral group): 420.67 ± 21.71^a mg/dL
OG2 (OGTT 120 min), Day 1 Readings (baseline) ([2]; GLIB 5 mg/kg per oral group): 358.50 ± 34.65^a mg/dL
Day 30 FBG ([2]; GLIB 5 mg/kg per oral): 96.67 ± 26.49^b mg/dL
Day 30 Beta cell function (%B) ([3]; GLIB 5 mg/kg per oral): 183.13 ± 68.69^b %
Day 30 Insulin Resistance (IR) ([3]; GLIB 5 mg/kg per oral): 2.70 ± 0.84^abd
Day 30 Insulin Sensitivity (%S) ([3]; GLIB 5 mg/kg per oral): 41.08 ± 16.03%
Body weight, Day 1 (Body weight measurement; GLIB 5 mg/kg per oral group): 179.67 ± 3.08
Percentage change in body weight on Day 30 when compared to baseline, Gain (+)/Loss (−) (Body weight measurement; GLIB 5 mg/kg per oral): +23%
Body weight, Day 30 (Body weight measurement; GLIB 5 mg/kg per oral): 221 ± 8.07^abcd

CN(C)C(=N)N=C(N)N [MET, Metformin]
Day 30 Serum Insulin ([1]; MET 500 mg/kg per oral): 35.63 ± 16.81^c pmol/L
OG1 (OGTT 60 min), Day 29 Readings (after treatment) ([2]; MET 500 mg/kg per oral daily): 329.33 ± 12.91^abd mg/dL
OG2 (OGTT 120 min), Day 29 Readings (after treatment) ([2]; MET 500 mg/kg per oral daily): 203.67 ± 58.96^b mg/dL
FBG, Day 29 Readings (after treatment) ([2]; MET 500 mg/kg per oral daily): 144.83 ± 53.86^b mg/dL
FBG, Day 1 Readings (baseline) ([2]; MET 500 mg/kg per oral group): 128.33 ± 5.32^a mg/dL
OG1 (OGTT 60 min), Day 1 Readings (baseline) ([2]; MET 500 mg/kg per oral group): 421.67 ± 39.52^a mg/dL
OG2 (OGTT 120 min), Day 1 Readings (baseline) ([2]; MET 500 mg/kg per oral group): 301.50 ± 64.05^a mg/dL
Day 30 FBG ([2]; MET 500 mg/kg per oral): 141.00 ± 52.33^abcd mg/dL
Day 30 Beta cell function (%B) ([3]; MET 500 mg/kg per oral): 42.03 ± 37.09^acd %
Day 30 Insulin Resistance (IR) ([3]; MET 500 mg/kg per oral): 0.73 ± 0.31^bc
Day 30 Insulin Sensitivity (%S) ([3]; MET 500 mg/kg per oral): 160.70 ± 68.64^abcd %
Body weight, Day 1 (Body weight measurement; MET 500 mg/kg per oral group): 183.67 ± 7.82
Percentage change in body weight on Day 30 when compared to baseline, Gain (+)/Loss (−) (Body weight measurement; MET 500 mg/kg per oral): −12.07%
Body weight, Day 30 (Body weight measurement; MET 500 mg/kg per oral): 161.5 ± 7.74^acd
